For 34 molecules, IC50 results are on record in patent US20060264460A1 (Wyeth, priority 2005, published 2006).

Where only a bound is given, the exact number is not on record here.

The assay deals with T1, human Cot/Tpl2 kinase (Homo sapiens, UniProt P41279).
T1 construct: human Cot/Tpl2 kinase construct encoding residues 30-398; 6His (N); made in house; host or cells: Sf9 insect cells, baculovirus system (BD Biosciences)
T1 sequence (P41279 30-398): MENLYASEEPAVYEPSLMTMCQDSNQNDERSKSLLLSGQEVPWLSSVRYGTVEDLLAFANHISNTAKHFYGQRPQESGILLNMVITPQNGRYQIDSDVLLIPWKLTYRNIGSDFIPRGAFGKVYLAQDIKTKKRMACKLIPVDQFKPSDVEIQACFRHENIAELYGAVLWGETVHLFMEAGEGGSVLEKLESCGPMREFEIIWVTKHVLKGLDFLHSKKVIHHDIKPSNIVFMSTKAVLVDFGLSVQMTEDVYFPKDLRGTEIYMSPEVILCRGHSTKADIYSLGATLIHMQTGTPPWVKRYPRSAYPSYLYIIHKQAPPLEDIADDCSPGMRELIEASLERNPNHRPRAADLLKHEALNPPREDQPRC
Nature of the assay: Tpl2/Cot kinase assay: GST-MEK1 phosphorylation detected by ELISA (DELFIA Eu). It is filed as biochemical. The settings on record: 0.4 nM Tpl2, 35 nM GST-MEK1, 50 uM ATP, 1 h at 30° C. In outline: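 His-tagged human Tpl2 from Sf9 cells, Ni-affinity and size-exclusion purified (monomer). 0.4 nM Tpl2 with 35 nM GST-MEK1, 50 uM ATP, MOPS pH 7.2, 1% DMSO, 1 h at 30° C; EDTA stop. MEK1 Ser217/221 phosphorylation detected by anti-phospho-MEK1 and Eu-labelled secondary ELISA; IC50 fitted.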
With `N#Cc1cnc2c(C(F)(F)F)cc(NCc3ccccc3F)cc2c1Nc1ccc(F)c(Cl)c1` [Example 235, 4-[(3-chloro-4-fluorophenyl)amino]-6-[(2-fluorobenzyl)amino]-8-(trifluoromethyl)quinoline-3-carbonitrile], the half-maximal inhibitory concentration (IC50) was over 40000 nM.

Molecule `Cn1ccnc1CNc1cc(C(F)(F)F)c2ncc(C#N)c(Nc3ccc(F)c(Cl)c3)c2c1` [Example 236, 4-[(3-chloro-4-fluorophenyl)amino]-6-{[(1-methyl-1H-imidazol-2-yl)methyl]amino}-8-(trifluoromethyl)quinoline-3-carbonitrile] showed an IC50 of 200 nM. To `N#Cc1cnc2c(C(F)(F)F)cc(NCc3cccn3S(=O)(=O)c3ccccc3)cc2c1Nc1ccc(F)c(Cl)c1` [Example 237, 4-[(3-chloro-4-fluorophenyl)amino]-6-({[1-(phenylsulfonyl)-1H-pyrrol-2-yl]methyl}amino)-8-(trifluoromethyl)quinoline-3-carbonitrile] belongs 24800 nM. For the molecule `Cc1cc(CNc2cc(C(F)(F)F)c3ncc(C#N)c(Nc4ccc(F)c(Cl)c4)c3c2)oc1C` [Example 238, 4-[(3-chloro-4-fluorophenyl)amino]-6-{[(4,5-dimethyl-2-furyl)methyl]amino}-8-(trifluoromethyl)quinoline-3-carbonitrile], inhibition was half-maximal at 8400 nM (IC50). To `N#Cc1cnc2c(C(F)(F)F)cc(NCc3cncs3)cc2c1Nc1ccc(F)c(Cl)c1` [Example 239, 4-[(3-chloro-4-fluorophenyl)amino]-6-[(1,3-thiazol-5-ylmethyl)amino]-8-(trifluoromethyl)quinoline-3-carbonitrile] belongs 780 nM; to `N#Cc1cnc2c(C(F)(F)F)cc(NCc3cncnc3)cc2c1Nc1ccc(F)c(Cl)c1` [Example 240, 4-[(3-chloro-4-fluorophenyl)amino]-6-[(pyrimidin-5-ylmethyl)amino]-8-(trifluoromethyl)quinoline-3-carbonitrile], 190 nM; to `COc1ncc(CNc2cc(C(F)(F)F)c3ncc(C#N)c(Nc4ccc(F)c(Cl)c4)c3c2)c(OC)n1` [Example 241], over 40000 nM. To `N#Cc1cnc2c(C(F)(F)F)cc(NCc3cnc(S(=O)(=O)c4ccccc4)s3)cc2c1Nc1ccc(F)c(Cl)c1` [Example 242, 4-[(3-chloro-4-fluorophenyl)amino]-6-({[2-(phenylsulfonyl)-1,3-thiazol-5-yl]methyl}amino)-8-(trifluoromethyl)quinoline-3-carbonitrile] belongs over 40000 nM. For the molecule `N#Cc1cnc2ccc(NCc3cnc(N4CCOCC4)s3)cc2c1Nc1ccc(F)c(Cl)c1` [Example 243, 4-[(3-chloro-4-fluorophenyl)amino]-6-{[(2-morpholin-4-yl-1,3-thiazol-5-yl)methyl]amino}quinoline-3-carbonitrile], the IC50 was over 40000 nM. `N#Cc1cnc2c(C(F)(F)F)cc(NCc3cnc(N4CCOCC4)s3)cc2c1Nc1ccc(F)c(Cl)c1` [Example 244, 4-[(3-chloro-4-fluorophenyl)amino]-6-{[(2-morpholin-4-yl-1,3-thiazol-5-yl)methyl]amino}-8-(trifluoromethyl)quinoline-3-carbonitrile] came in with an IC50 of over 40000 nM. Under `N#Cc1cnc2ccc(NCc3cnc(S(=O)(=O)c4ccccc4)s3)cc2c1Nc1ccc(F)c(Cl)c1` [Example 245, 4-[(3-chloro-4-fluorophenyl)amino]-6-({[2-(phenylsulfonyl)-1,3-thiazol-5-yl]methyl}amino)quinoline-3-carbonitrile] stands 910 nM; under `N#Cc1cnc2ccc(NCc3cccnc3)cc2c1NC1CCCCCC1` [Example 246, 4-(cycloheptylamino)-6-[(pyridin-3-ylmethyl)amino]quinoline-3-carbonitrile], 2400 nM; under `N#Cc1cccc(CNc2ccc3ncc(C#N)c(NC4CCCCCC4)c3c2)c1` [Example 247, 6-[(3-Cyanobenzyl)amino]-4-(cycloheptylamino)quinoline-3-carbonitrile], 2500 nM. In the case of `CS(=O)(=O)c1cccc(CNc2ccc3ncc(C#N)c(NC4CCCCCC4)c3c2)c1` [Example 248, 4-(cycloheptylamino)-6-{[3-(methylsulfonyl)benzyl]amino}quinoline-3-carbonitrile], the IC50 worked out at 2500 nM. That is a single-digit micromolar value. Turning to `Cn1ccnc1CNc1ccc2ncc(C#N)c(NC3CCCCCC3)c2c1` [Example 249, 4-(cycloheptylamino)-6-{[(1-methyl-1H-imidazol-2-yl)methyl]amino}quinoline-3-carbonitrile], 380 nM corresponded to half-maximal inhibition (IC50). Under `N#Cc1cnc2ccc(NCc3ccc(S(N)(=O)=O)cc3)cc2c1NC1CCCCCC1` [Example 250, 4-({[3-cyano-4-(cycloheptylamino)quinolin-6-yl]amino}methyl)benzenesulfonamide] stands 6800 nM; under `N#Cc1cnc2ccc(NCc3ccn[nH]3)cc2c1NC1CCCCCC1` [Example 251, 4-(cycloheptylamino)-6-[(1H-pyrazol-5-ylmethyl)amino]quinoline-3-carbonitrile], 650 nM. Under `N#Cc1cnc2ccc(NCCN3CCOCC3)cc2c1NC1CCCCCC1` [Example 252, 4-(cycloheptylamino)-6-[(2-morpholin-4-ylethyl)amino]quinoline-3-carbonitrile] stands 6100 nM; under `N#Cc1cnc2ccc(NCc3cccc[n+]3[O-])cc2c1NC1CCCCCC1` [Example 253, 4-(cycloheptylamino)-6-{[(1-oxidopyridin-2-yl)methyl]amino}quinoline-3-carbonitrile], 1400 nM. Under `Cc1nc2ccc(NCc3cnc[nH]3)cc2c(Nc2ccc(F)c(Cl)c2)c1C#N` [Example 254, 4-[(3-chloro-4-fluorophenyl)amino]-6-[(1H-imidazol-5-ylmethyl)amino]-2-methylquinoline-3-carbonitrile] stands 19900 nM; under `Cc1nc2ccc(NCc3cccnc3)cc2c(Nc2ccc(F)c(Cl)c2)c1C#N` [Example 255, 4-[(3-chloro-4-fluorophenyl)amino]-2-methyl-6-[(pyridin-3-ylmethyl)amino]quinoline-3-carbonitrile], over 40000 nM; under `N#Cc1cnc2ccc(NC3CCCC3c3ccccn3)cc2c1Nc1ccc(F)c(Cl)c1` (stereo not shown) [Example 256, 4-[(3-chloro-4-fluorophenyl)amino]-6-[(2-pyridin-2-ylcyclopentyl)amino]quinoline-3-carbonitrile], 310 nM. `N#Cc1cnc2c(C(F)(F)F)cc(NCc3cccc[n+]3[O-])cc2c1Nc1ccc(F)c(Cl)c1` [Example 257, 4-[(3-chloro-4-fluorophenyl)amino]-6-{[(1-oxidopyridin-2-yl)methyl]amino}-8-(trifluoromethyl)quinoline-3-carbonitrile] displayed an IC50 of 370 nM. To `N#Cc1cnc2ccc(NCc3cccc(Br)n3)cc2c1Nc1ccc(F)c(Cl)c1` [Example 258, 6-{[(6-bromopyridin-2-yl)methyl]amino}-4-[(3-chloro-4fluorophenyl)amino]quinoline-3-carbonitrile] belongs 270 nM. To `N#Cc1cnc2c(C(F)(F)F)cc(NCc3cccc(Br)n3)cc2c1Nc1ccc(F)c(Cl)c1` [Example 259, 6-{[(6-Bromopyridin-2-yl)methyl]amino}-4-[(3-chloro-4-fluorophenyl)amino]-8-(trifluoromethyl)quinoline-3-carbonitrile] belongs over 40000 nM.

With `CC(Nc1ccc2ncc(C#N)c(Nc3ccc(F)c(Cl)c3)c2c1)c1cnccn1` (stereo not shown) [Example 260, 4-[(3-chloro-4-fluorophenyl)amino]-6-[(1-pyrazin-2-ylethyl)amino]quinoline-3-carbonitrile], it took 830 nM to reach half-maximal inhibition (IC50). To `Cn1nc(C(C)(C)C)cc1Nc1c(C#N)cnc2ccc(NCc3cnc[nH]3)cc12` [Example 261, 4-[(3-tert-butyl-1-methyl-1H-pyrazol-5-yl)amino]-6-[(1 H-imidazol-5-ylmethyl)amino]quinoline-3-carbonitrile] belongs over 40000 nM; to `Cc1noc(Nc2c(C#N)cnc3ccc(NCc4cnc[nH]4)cc23)c1C` [Example 262, 4-[(3,4-dimethylisoxazol-5-yl)amino]-6-[(1H-imidazol-5-ylmethyl)amino]quinoline-3-carbonitrile], 2200 nM. To `N#Cc1cnc2ccc(NCc3cnc[nH]3)cc2c1Nc1cccnc1` [Example 263, 6-[(1H-imidazol-5-ylmethyl)amino]-4-(pyridin-3-ylamino)quinoline-3-carbonitrile] belongs 1600 nM; to `N#Cc1cnc2ccc(NCc3cnc[nH]3)cc2c1Nc1ccncc1` [Example 264, 6-[(1H-imidazol-5-ylmethyl)amino]-4-(pyridin-4-ylamino)quinoline-3-carbonitrile], 2500 nM. Molecule `N#Cc1cnc2c(F)cc(NCc3cnc[nH]3)cc2c1Nc1ccc(F)c(Cl)c1` [Example 265, 4-[(3-Chloro-4-fluorophenyl)amino]-8-fluoro-6-[(1H-imidazol-5-ylmethyl)amino]quinoline-3-carbonitrile] yielded an IC50 of 21 nM. Against the preceding molecule, the IC50 is about 120-fold lower. Under `N#Cc1cnc2c(F)cc(NCc3cccc[n+]3[O-])cc2c1Nc1ccc(F)c(Cl)c1` [Example 266, 4-[(3-chloro-4-fluorophenyl)amino]-8-fluoro-6-{[(1-oxidopyridin-2-yl)methyl]amino}quinoline-3-carbonitrile] stands 13 nM; under `N#Cc1cnc2c(F)cc(NCc3ccn[nH]3)cc2c1Nc1ccc(F)c(Cl)c1` [Example 267, 4-[(3-chloro-4-fluorophenyl)amino]-8-fluoro-6-[(1H-pyrazol-5-ylmethyl)amino]quinoline-3-carbonitrile], 100 nM.

The molecule `Cn1ccnc1CNc1cc(F)c2ncc(C#N)c(Nc3ccc(F)c(Cl)c3)c2c1` [Example 268, 4-[(3-Chloro-4-fluorophenyl)amino]-8-fluoro-6-{[(1-methyl-1H-imidazol-2-yl)methyl]amino}quinoline-3-carbonitrile] came in with an IC50 of 12 nM.
